Values quoted from earlier work, collected in US4913906A, “Novel controlled release dosage form of valproic acid” (priority 1985, dated 1990).

Tests used:
[1] = all currently used antiepileptics

SMILES	elimination half-life compared with other antiepileptics [1]	fluctuations in the drug plasma level (chronic valpromide treatment)	absorption rate (compared with valproic acid)	biotransformation to VPA (in vivo)
CCCC(CCC)C(=O)O [VPA, valproic acid]	shortest elimination half-life of all currently used antiepileptics	–	–	–
CCCC(CCC)C(N)=O [Valpromide, valpromide]	–	fewer fluctuations in the drug plasma level	slower absorption rate than valproic acid	biotransform to VPA before reaching the systemic circulation
